PubChem BioAssay AID1919015 (Molecular Pharmacology Branch, DTP, NCI, 2023)

System: OVCAR-5 complex spheroids with HUVEC/MSC, viability, % test/control
Assay: Anticancer human tumor OVCAR-5 cell line growth inhibition [AhR];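 also: spheroids exposed to compounds for 7 days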;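 as to viability, T/C: 100% = DMSO vehicle control wells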
Settings: for IC50: curve of first compound; for viability, T/C: stronger effect = lower value
Procedure, shortened: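 Agents were dosed in half-log steps down from roughly clinical Cmax, or from 10 microM where Cmax was unknown, alone and with AhR antagonists. Read-out: percent test/control growth of tumor spheroids containing HUVEC and MSC stromal cells.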

[1] = second compound 0.1 µM, first compound 0.0316 µM
[2] = second compound 0.1 µM, first compound 0.1 µM
[3] = second compound 0.1 µM, first compound 0.316 µM
[4] = second compound 0.1 µM, first compound 1 µM
[5] = second compound 0.1 µM, first compound 3.16 µM
[6] = second compound 0.1 µM, first compound 10 µM
[7] = second compound 0.316 µM, first compound 0.0316 µM
[8] = second compound 0.316 µM, first compound 0.1 µM
[9] = second compound 0.316 µM, first compound 0.316 µM
[10] = second compound 0.316 µM, first compound 1 µM
[11] = second compound 0.316 µM, first compound 3.16 µM
[12] = second compound 0.316 µM, first compound 10 µM
[13] = second compound 1 µM, first compound 0.0316 µM
[14] = second compound 1 µM, first compound 0.1 µM
[15] = second compound 1 µM, first compound 0.316 µM
[16] = second compound 1 µM, first compound 1 µM
[17] = second compound 1 µM, first compound 3.16 µM
[18] = second compound 1 µM, first compound 10 µM
[19] = second compound 3.16 µM, first compound 0.0316 µM
[20] = second compound 3.16 µM, first compound 0.1 µM
[21] = second compound 3.16 µM, first compound 0.316 µM
[22] = second compound 3.16 µM, first compound 1 µM
[23] = second compound 3.16 µM, first compound 3.16 µM
[24] = second compound 3.16 µM, first compound 10 µM
[25] = second compound 10 µM, first compound 0.0316 µM
[26] = second compound 10 µM, first compound 0.1 µM
[27] = second compound 10 µM, first compound 0.316 µM
[28] = second compound 10 µM, first compound 1 µM
[29] = second compound 10 µM, first compound 3.16 µM
[30] = second compound 10 µM, first compound 10 µM
[31] = second compound 0.1 µM, first compound 0.00949 µM
[32] = second compound 0.1 µM, first compound 0.03 µM
[33] = second compound 0.1 µM, first compound 0.0949 µM
[34] = second compound 0.1 µM, first compound 0.3 µM
[35] = second compound 0.316 µM, first compound 0.00949 µM
[36] = second compound 0.316 µM, first compound 0.03 µM
[37] = second compound 0.316 µM, first compound 0.0949 µM
[38] = second compound 0.316 µM, first compound 0.3 µM
[39] = second compound 1 µM, first compound 0.00949 µM
[40] = second compound 1 µM, first compound 0.03 µM
[41] = second compound 1 µM, first compound 0.0949 µM
[42] = second compound 1 µM, first compound 0.3 µM
[43] = second compound 3.16 µM, first compound 0.00949 µM
[44] = second compound 3.16 µM, first compound 0.03 µM
[45] = second compound 3.16 µM, first compound 0.0949 µM
[46] = second compound 3.16 µM, first compound 0.3 µM
[47] = second compound 10 µM, first compound 0.00949 µM
[48] = second compound 10 µM, first compound 0.03 µM
[49] = second compound 10 µM, first compound 0.0949 µM
[50] = second compound 10 µM, first compound 0.3 µM

In the case of `Nc1ccn(C2OC(CO)C(O)C2(F)F)c(=O)n1` (stereo not given) + Cc1cncc(-c2nc(NCCc3c[nH]c4ccccc34)c3ncn(C(C)C)c3n2)c1, the IC50 (second compound 0.1 µM) is reported as less than 0.0316 µM, the IC50 (second compound 0.316 µM) is reported as less than 0.0316 µM and the IC50 (second compound 1 µM) is reported as less than 0.0316 µM. The IC50 (second compound 3.16 µM) was less than 0.0316 µM, the IC50 (second compound 10 µM) was less than 0.0316 µM and the viability, T/C [1] was 33.2%. It also gave a viability, T/C [2] of 30.1%, a viability, T/C [3] of 31.2% and a viability, T/C [4] of 33%. It also gave a viability, T/C [5] of 33%, a viability, T/C [6] of 31.6% and a viability, T/C [7] of 33.6%. For the same molecule, the viability, T/C [8] was 30.9%, the viability, T/C [9] was 32% and the viability, T/C [10] was 32%. It also gave a viability, T/C [11] of 32.2%, a viability, T/C [12] of 31.6% and a viability, T/C [13] of 33.6%. The viability, T/C [14] was 31.5%, the viability, T/C [15] was 34.1% and the viability, T/C [16] was 33%. The viability, T/C [17] was 34.9%, the viability, T/C [18] was 32% and the viability, T/C [19] was 33.6%. For the same molecule, the viability, T/C [20] was 33.4%, the viability, T/C [21] was 32% and the viability, T/C [22] was 32.5%. It also gave a viability, T/C [23] of 35%, a viability, T/C [24] of 34.4% and a viability, T/C [25] of 3.2%. It also gave a viability, T/C [26] of 3.6%, a viability, T/C [27] of 4.58% and a viability, T/C [28] of 4.3%. It also gave a viability, T/C [29] of 6.36% and a viability, T/C [30] of 9.03%.

With `O=C(C=Cn1cnc(-c2cc(C(F)(F)F)cc(C(F)(F)F)c2)n1)NNc1cnccn1` + Cc1cncc(-c2nc(NCCc3c[nH]c4ccccc34)c3ncn(C(C)C)c3n2)c1 the IC50 (second compound 0.1 µM) was 2.76 µM, the IC50 (second compound 0.316 µM) was greater than 3 µM and the IC50 (second compound 1 µM) was 2.43 µM. For the same molecule, the IC50 (second compound 3.16 µM) was 1.45 µM, the IC50 (second compound 10 µM) was less than 0.00949 µM and the viability, T/C [31] was 105%. For the same molecule, the viability, T/C [32] was 108%, the viability, T/C [33] was 102% and the viability, T/C [34] was 87.4%. For the same molecule, the viability, T/C (second compound 0.1 µM, first compound 0.949 µM) was 67.7%, the viability, T/C (second compound 0.1 µM, first compound 3 µM) was 48.4% and the viability, T/C [35] was 107%. It also gave a viability, T/C [36] of 109%, a viability, T/C [37] of 107% and a viability, T/C [38] of 86.4%. For the same molecule, the viability, T/C (second compound 0.316 µM, first compound 0.949 µM) was 68.9%, the viability, T/C (second compound 0.316 µM, first compound 3 µM) was 49.8% and the viability, T/C [39] was 105%. It also gave a viability, T/C [40] of 108%, a viability, T/C [41] of 106% and a viability, T/C [42] of 89.4%. The viability, T/C (second compound 1 µM, first compound 0.949 µM) was 71%, the viability, T/C (second compound 1 µM, first compound 3 µM) was 45.3% and the viability, T/C [43] was 98.1%. The viability, T/C [44] was 99.5%, the viability, T/C [45] was 99.6% and the viability, T/C [46] was 79.8%. For the same molecule, the viability, T/C (second compound 3.16 µM, first compound 0.949 µM) was 62%, the viability, T/C (second compound 3.16 µM, first compound 3 µM) was 31.8% and the viability, T/C [47] was 16.3%. It also gave a viability, T/C [48] of 15%, a viability, T/C [49] of 15.9% and a viability, T/C [50] of 16.4%. The viability, T/C (second compound 10 µM, first compound 0.949 µM) was 13.3% and the viability, T/C (second compound 10 µM, first compound 3 µM) was 12.6%.

In the case of `CCc1c2c(nc3ccc(O)cc13)-c1cc3c(c(=O)n1C2)COC(=O)[C@]3(O)CC` + Cc1cncc(-c2nc(NCCc3c[nH]c4ccccc34)c3ncn(C(C)C)c3n2)c1, the IC50 (second compound 0.1 µM) is reported as 0.0098 µM, the IC50 (second compound 0.316 µM) is reported as 0.00909 µM and the IC50 (second compound 1 µM) is reported as 0.00808 µM. For the same molecule, the IC50 (second compound 3.16 µM) was 0.00377 µM, the IC50 (second compound 10 µM) was less than 0.000949 µM and the viability, T/C (second compound 0.1 µM, first compound 0.000949 µM) was 83.8%. The viability, T/C (second compound 0.1 µM, first compound 0.003 µM) was 59%, the viability, T/C [31] was 46.3% and the viability, T/C [32] was 44.8%. The viability, T/C [33] was 23.4%, the viability, T/C [34] was 9.85% and the viability, T/C (second compound 0.316 µM, first compound 0.000949 µM) was 80.1%. It also gave a viability, T/C (second compound 0.316 µM, first compound 0.003 µM) of 57.1%, a viability, T/C [35] of 47.4% and a viability, T/C [36] of 42.3%. It also gave a viability, T/C [37] of 22.8%, a viability, T/C [38] of 9.22% and a viability, T/C (second compound 1 µM, first compound 0.000949 µM) of 73.1%. It also gave a viability, T/C (second compound 1 µM, first compound 0.003 µM) of 51.4%, a viability, T/C [39] of 50.7% and a viability, T/C [40] of 42.3%. The viability, T/C [41] was 21.5%, the viability, T/C [42] was 9.57% and the viability, T/C (second compound 3.16 µM, first compound 0.000949 µM) was 56.8%. The viability, T/C (second compound 3.16 µM, first compound 0.003 µM) was 43.8%, the viability, T/C [43] was 48.4% and the viability, T/C [44] was 40.2%. For the same molecule, the viability, T/C [45] was 21.9%, the viability, T/C [46] was 8.5% and the viability, T/C (second compound 10 µM, first compound 0.000949 µM) was 4.99%. It also gave a viability, T/C (second compound 10 µM, first compound 0.003 µM) of 5.37%, a viability, T/C [47] of 9.12% and a viability, T/C [48] of 7.96%. For the same molecule, the viability, T/C [49] was 4.98% and the viability, T/C [50] was 2.23%.

`COc1cc(C2c3cc4c(cc3C(OC3OC5COC(C)OC5C(O)C3O)C3COC(=O)C23)OCO4)cc(OC)c1O` (stereo not given) + Cc1ccccc1N=Nc1ccc(NC(=O)c2ccnn2C)c(C)c1 showed an IC50 (second compound 0.1 µM) of 2.09 µM, an IC50 (second compound 0.316 µM) of 2.25 µM and an IC50 (second compound 1 µM) of 2.5 µM. It also gave an IC50 (second compound 3.16 µM) of 2.75 µM, an IC50 (second compound 10 µM) of 2.91 µM and a viability, T/C [1] of 105%. For the same molecule, the viability, T/C [2] was 104%, the viability, T/C [3] was 98.8% and the viability, T/C [4] was 68.3%. It also gave a viability, T/C [5] of 40.4%, a viability, T/C [6] of 32.1% and a viability, T/C [7] of 114%. It also gave a viability, T/C [8] of 114%, a viability, T/C [9] of 103% and a viability, T/C [10] of 68.8%. It also gave a viability, T/C [11] of 43.4%, a viability, T/C [12] of 32.9% and a viability, T/C [13] of 115%. For the same molecule, the viability, T/C [14] was 116%, the viability, T/C [15] was 105% and the viability, T/C [16] was 73.5%. For the same molecule, the viability, T/C [17] was 44.1%, the viability, T/C [18] was 36.1% and the viability, T/C [19] was 112%. The viability, T/C [20] was 121%, the viability, T/C [21] was 110% and the viability, T/C [22] was 77.1%. For the same molecule, the viability, T/C [23] was 47.9%, the viability, T/C [24] was 38.2% and the viability, T/C [25] was 105%. The viability, T/C [26] was 107%, the viability, T/C [27] was 98% and the viability, T/C [28] was 68.8%. The viability, T/C [29] was 51.8% and the viability, T/C [30] was 38.9%.

Molecule `COc1ccc([C@@H](O)c2cc(-c3ncnc4cc(N5CCOCC5)ccc34)c(F)cc2Cl)nn1` + Cc1cncc(-c2nc(NCCc3c[nH]c4ccccc34)c3ncn(C(C)C)c3n2)c1 has an IC50 (second compound 0.1 µM) of 3.23 µM, an IC50 (second compound 0.316 µM) of 3.56 µM and an IC50 (second compound 1 µM) of 2.74 µM. The IC50 (second compound 3.16 µM) was 1.66 µM, the IC50 (second compound 10 µM) was less than 0.0316 µM and the viability, T/C [1] was 104%. It also gave a viability, T/C [2] of 104%, a viability, T/C [3] of 100% and a viability, T/C [4] of 80.9%. It also gave a viability, T/C [5] of 50.9%, a viability, T/C [6] of 28.8% and a viability, T/C [7] of 104%. The viability, T/C [8] was 103%, the viability, T/C [9] was 94% and the viability, T/C [10] was 80%. It also gave a viability, T/C [11] of 52%, a viability, T/C [12] of 29.1% and a viability, T/C [13] of 98.7%. It also gave a viability, T/C [14] of 101%, a viability, T/C [15] of 95% and a viability, T/C [16] of 74.9%. The viability, T/C [17] was 47.1%, the viability, T/C [18] was 28.8% and the viability, T/C [19] was 83.5%. The viability, T/C [20] was 83.3%, the viability, T/C [21] was 79.8% and the viability, T/C [22] was 59.9%. For the same molecule, the viability, T/C [23] was 36.5%, the viability, T/C [24] was 20% and the viability, T/C [25] was 14.2%. For the same molecule, the viability, T/C [26] was 13.6%, the viability, T/C [27] was 12.2% and the viability, T/C [28] was 7.42%. For the same molecule, the viability, T/C [29] was 4.87% and the viability, T/C [30] was 3.46%.
